Data taken from patent US9567301B2, “Pyrrol-1-yl benzoic acid derivatives useful as myc inhibitors” (Whitehead Institute for Biomedical Research, priority 2012, dated 2017).

Legend:
Jurkat cells = experiment: Cell viability assay (ATPlite), Jurkat; type: cell-based, human; conditions: Homo sapiens, Jurkat; class symbols; NA: not active under assay conditions
Description: This assay was used for the H2171 and MM1S cell data shown in Table 2, and for the Jurkat (an immortalized line of human T lymphocyte cells), Ly1 (OCI-Ly1 human non-Hodgkin lymphoma cell line), Ly4 (OCI-Ly4 human non-Hodgkin lymphoma cell line), H2172 (NCI-H2172 human non-small cell lung cancer cell line), and CA-46 (a human Burkitt's lymphoma cell line) cell data shown in Table 3 and FIG. 12. Cells were counted and adjusted to 60,000 cells/mL. Using a Biotek EL406, 50 μL of cells are media were distributed into 384 well white plates from Thermo. Immediately after plating, compound in DMSO was distributed to plates. For large plate sets, cells were returned to 37° C. incubator while not in use.
Compounds were added to plates using a 100 nL 384 well pin transfer manifold on a Janus workstation. Stocks were arrayed in 10 point quadruplicate dose response in DMSO stock in 384 well Greiner compound plates. After addition of compound, plates were incubated for three days in a 37° C. incubator.
Cell viability was read out using ATPlite from Perkin Elmer. Plates were removed from the incubator and brought to room temperature prior to use. Lyophilized powder was resuspended in lysis buffer and diluted 1:2 with DI water. 25 μL of this solution was added to each well using the Biotek liquid handler. Plates were sealed with adherent aluminum seals prior to vortexing and spinning down at 1000 g for 1 minute. Plates were incubated for 15 minutes at room temperature before signal was read on an Envision Plate Reader.

c-Myc/Max/Ebox DNA [1] = target: T1, c-Myc/Max/Ebox DNA (Homo sapiens, UniProt P01106); experiment: Gelshift assay, c-Myc/Max/Ebox DNA complex formation; type: binding; conditions: relative to DMSO at 2.5 mM (FIG. 9)
T1 sequence (P01106 16-454): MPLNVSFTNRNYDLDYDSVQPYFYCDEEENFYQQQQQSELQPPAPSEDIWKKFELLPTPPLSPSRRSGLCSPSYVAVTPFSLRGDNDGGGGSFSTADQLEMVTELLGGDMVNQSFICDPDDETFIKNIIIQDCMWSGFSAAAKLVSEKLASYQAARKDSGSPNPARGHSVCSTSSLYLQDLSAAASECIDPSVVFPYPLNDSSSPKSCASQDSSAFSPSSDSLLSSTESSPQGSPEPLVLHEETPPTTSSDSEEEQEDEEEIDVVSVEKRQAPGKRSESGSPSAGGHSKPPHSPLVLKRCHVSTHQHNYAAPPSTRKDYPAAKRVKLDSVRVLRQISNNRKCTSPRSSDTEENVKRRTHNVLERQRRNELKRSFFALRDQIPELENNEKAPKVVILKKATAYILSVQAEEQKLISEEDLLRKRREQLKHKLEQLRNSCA
Description: FIG. 5 describes validation of Compound 63 activity using an orthogonal biochemical assay. […] Decreasing amounts of 63 was added to purified c-Myc, Max and biotinylated Ebox DNA. Biotinylated Ebox DNA complexed with protein (either c-Myc/Max or Max/Max) or free (bottom band) was assayed using a 6% retardation gel, transferred to a membrane and detected using straptavidin-HRP. […]
(§1) AlphaScreen hits can be validated using orthogonal biochemical assays such as a gelshift assay (also called an electrophoretic mobility shift assay) with purified components or cellular lysates. FIG. 5 (left) illustrates how the AlphaScreen hit 63 was validated using a gelshift assay with purified c-Myc, Max and Ebox DNA. […] Compounds and analogs were then examined for potency and selectivity against structurally similar transcription factor:DNA complexes, such as Max/Max/Ebox DNA and MITF/MITF/Ebox DNA. Data in FIG. 9 show how analogs can be tested for potency against structurally similar transcription factors and how medicinal chemistry optimization can drive potency and selectivity against different transcription factor:DNA complexes. […] The selectivity among structurally similar transcription factors can also provide insights into compound mechanism of action. […] Cellular assays can compliment the biochemical analyses to measure the cellular potency of compounds to induce cellular phenotypes expected as a result of loss of transcription factor function. This includes gene expression analysis, chromatin immunoprecipitation (ChIP) analysis, cellular proliferation analysis and cell state analysis. Gene expression analysis can be performed using qRT-PCR, Nanostring technology, microarray technology, or RNA-seq technology to study transcript changes following treatment with compound. ChIP analysis can be performed on the factor of interest to study if compound treatment alters its genomic occupancy. Cellular proliferation and cell state analysis can indicate if the compound alters cell cycle progression or cellular identity. Thus, the approach using biochemical and cellular assays with large chemical libraries or focused libraries of hits identified in high throughput screens can serve as a platform to develop inhibitors of transcription factor function.

Max/Max/Ebox DNA = Max/Max/Ebox DNA (Homo sapiens, UniProt P61244); experiment: Gelshift assay, Max/Max/Ebox DNA complex formation; type: binding; conditions: relative to DMSO at 2.5 µM (FIG. 9)
Max/Max/Ebox DNA, sequence (P61244 whole entry): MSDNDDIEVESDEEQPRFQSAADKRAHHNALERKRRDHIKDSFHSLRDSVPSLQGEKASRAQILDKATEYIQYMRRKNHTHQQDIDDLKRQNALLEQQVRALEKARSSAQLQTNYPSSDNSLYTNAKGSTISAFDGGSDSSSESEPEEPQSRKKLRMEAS
Description: (§2) Compounds tested at 2.5 μM for their inhibitory activity against c-Myc/Max/Ebox DNA, Max/Max/Ebox DNA and MITF/MITF/Ebox DNA complex formation using gelshift assays.
as §1, with “Gene expression analysis can be performed using qRT-PCR, Nanostring technology, microarray technology, or RNA-seq technology to study transcript changes following treatment with compound. ChIP analysis can be performed on the factor of interest to study if compound treatment alters its genomic occupancy. Cellular proliferation and cell state analysis can indicate if the compound alters cell cycle progression or cellular identity. Thus, the approach using biochemical and cellular assays with large chemical libraries or focused libraries of hits identified in high throughput screens can serve as a platform to develop inhibitors of transcription factor function.” left out

MITF/MITF/Ebox DNA = target: T2, MITF/MITF/Ebox DNA (Homo sapiens, UniProt O75030); experiment: Gelshift assay, MITF/MITF/Ebox DNA complex formation; type: binding; conditions: relative to DMSO at 2.5 µM (FIG. 9)
T2 sequence (O75030 1-526): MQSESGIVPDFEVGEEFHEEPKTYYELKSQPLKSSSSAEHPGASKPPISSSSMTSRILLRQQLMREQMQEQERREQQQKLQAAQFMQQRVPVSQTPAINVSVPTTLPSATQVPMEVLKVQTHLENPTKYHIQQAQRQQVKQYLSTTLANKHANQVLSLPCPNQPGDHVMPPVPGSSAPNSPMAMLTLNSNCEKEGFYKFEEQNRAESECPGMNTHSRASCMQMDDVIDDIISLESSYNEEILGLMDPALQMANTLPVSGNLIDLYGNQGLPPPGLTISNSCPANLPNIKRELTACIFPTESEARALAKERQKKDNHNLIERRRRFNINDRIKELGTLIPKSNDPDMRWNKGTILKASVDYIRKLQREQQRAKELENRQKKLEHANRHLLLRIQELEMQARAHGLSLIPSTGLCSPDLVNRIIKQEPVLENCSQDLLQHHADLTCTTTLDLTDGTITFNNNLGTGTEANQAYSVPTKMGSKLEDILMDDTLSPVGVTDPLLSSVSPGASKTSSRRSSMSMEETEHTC
Description: as §2, §1

c-Myc/Max/Ebox DNA [2] = target: T1, c-Myc/Max/Ebox DNA; experiment: c-Myc/Max/Ebox DNA AlphaScreen assay; type: binding; design: An exemplary assay uses full-length human c-Myc and Max proteins; his6 (cleaved yes); made in house
Method in brief: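 Free c-Myc (25 nM), made by thrombin removal of the His6 tag, is pre-mixed with biotin-Ebox DNA (10 nM) and Ni acceptor beads before compound addition, then His6-Max (1.25 nM) and streptavidin donor beads are added. Buffer is HEPES pH 8.0 with BSA, Tween20, glycogen and DTT. Read after 2 h, excitation 680 nm, emission 520–620 nm.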

protein:DNA complex = experiment: Comparative biochemical analyses of protein:DNA complex formation (FIG. 10); type: binding; conditions: FIG. 10, DNA intercalator comparison

Row | Structure (SMILES) | EC50 (Jurkat cells) | c-Myc/Max/Ebox DNA complex formation (c-Myc/Max/Ebox DNA [1]) | Max/Max/Ebox DNA complex formation (Max/Max/Ebox DNA) | MITF/MITF/Ebox DNA complex formation (MITF/MITF/Ebox DNA) | biochemical activity (c-Myc/Max/Ebox DNA [2]; FIG. 4) | IC50 (c-Myc/Max/Ebox DNA [2]; class symbols, NA: not active under assay conditions, read-out: Myc/Max IC50) | protein:DNA complex formation (protein:DNA complex)
1 | Cc1ccc(C)n1-c1cc(C(=O)N/N=C/c2cccc(C(=O)O)c2)ccc1C(=O)O [Compound 101, (E)-4-(2-(3-carboxybenzylidene)hydrazinecarbonyl)-2-(2,5-dimethyl-1H-pyrrol-1-yl)benzoic acid] | 10 to 100 µM | potently disrupted | potently disrupted | potently disrupted | increased biochemical activity | 1 to 10 µM | –
2 | COc1cccc2c1C(=O)c1c(O)c3c(c(O)c1C2=O)C[C@@](O)(C(=O)CO)C[C@@H]3O[C@H]1C[C@H](N)[C@H](O)[C@H](C)O1 [doxorubicin] | – | – | – | – | – | – | non-specifically disrupts protein:DNA complex formation
